Results as given in ChEMBL document CHEMBL5661967, “Antitumor activity of HKI-272, an orally active, irreversible inhibitor of the HER-2 tyrosine kinase” (Cancer Res, 2004).

Molecular target: Receptor tyrosine-protein kinase erbB-2 (Homo sapiens, UniProt P04626)
Test: Inhibition of recombinant N-terminal His6-tagged HER2 cytoplasmic domain (676 to 1255 residues) (unknown origin) expressed in baculovirus infected Sf9 insect cells assessed as reduction in autophosphorylation preincubated for 15 mins followed by ATP addition and measured after 1 hr by ELISA

Receptor tyrosine-protein kinase erbB-2, sequence (P04626 whole entry, the tested form may be a part): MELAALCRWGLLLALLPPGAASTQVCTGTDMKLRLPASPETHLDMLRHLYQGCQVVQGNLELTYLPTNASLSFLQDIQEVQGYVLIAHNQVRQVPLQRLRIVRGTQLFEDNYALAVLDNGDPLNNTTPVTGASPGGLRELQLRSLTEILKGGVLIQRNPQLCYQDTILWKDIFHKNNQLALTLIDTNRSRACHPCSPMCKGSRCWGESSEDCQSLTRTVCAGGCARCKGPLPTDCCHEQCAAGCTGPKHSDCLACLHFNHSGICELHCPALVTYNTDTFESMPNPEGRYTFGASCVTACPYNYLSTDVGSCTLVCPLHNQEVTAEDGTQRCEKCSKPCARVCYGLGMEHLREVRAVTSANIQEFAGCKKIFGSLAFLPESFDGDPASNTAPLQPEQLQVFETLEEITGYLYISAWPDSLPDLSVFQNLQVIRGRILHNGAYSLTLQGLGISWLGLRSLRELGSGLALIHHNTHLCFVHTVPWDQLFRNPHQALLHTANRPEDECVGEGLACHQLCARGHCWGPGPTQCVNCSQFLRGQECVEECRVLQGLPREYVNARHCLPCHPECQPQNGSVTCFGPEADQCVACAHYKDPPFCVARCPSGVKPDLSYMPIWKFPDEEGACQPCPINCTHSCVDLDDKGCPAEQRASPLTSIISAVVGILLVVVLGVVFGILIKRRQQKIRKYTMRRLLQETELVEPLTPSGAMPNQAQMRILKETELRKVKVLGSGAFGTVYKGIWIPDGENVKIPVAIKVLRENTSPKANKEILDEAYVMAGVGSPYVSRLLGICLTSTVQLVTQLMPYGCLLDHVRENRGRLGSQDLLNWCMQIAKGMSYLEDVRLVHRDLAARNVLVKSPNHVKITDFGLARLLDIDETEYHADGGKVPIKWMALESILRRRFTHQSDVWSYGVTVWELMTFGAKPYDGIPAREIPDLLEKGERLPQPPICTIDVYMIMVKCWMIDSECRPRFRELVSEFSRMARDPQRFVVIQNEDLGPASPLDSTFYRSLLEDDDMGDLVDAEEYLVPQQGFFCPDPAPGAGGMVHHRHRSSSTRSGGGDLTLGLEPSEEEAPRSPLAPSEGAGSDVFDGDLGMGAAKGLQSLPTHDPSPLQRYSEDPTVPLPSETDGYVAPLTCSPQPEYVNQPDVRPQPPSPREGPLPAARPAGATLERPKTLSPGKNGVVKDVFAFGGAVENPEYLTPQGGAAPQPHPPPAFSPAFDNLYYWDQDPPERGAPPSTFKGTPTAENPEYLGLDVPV

CCOc1cc2ncc(C#N)c(Nc3ccc(F)c(Cl)c3)c2cc1NC(=O)/C=C/CN(C)C [PELITINIB]
IC50: 1260 nM
